What was measured:
[1] = biological target: humanized OX2 receptor (Homo sapiens (Human), UniProt O43614); assay: Antagonism of humanized OX2 receptor assay (fluorescence detection of free cytoplasmic calcium, 10 nM orexin B); type: cell-based; conditions: humanized OX2 receptor transfected HEK-293 cells
Protocol: The capability of the compounds to antagonism of humanized OX2 receptor transfected by the HEK-293 cells was evaluated by the method of fluorescence detected free calcium concentration in the cytoplasm. The cells were suspended in cell culture medium (invitrogen), and then added to a microplate with an average density of 3×10^4 cells/well. The fluorescent probes (Fluo4 NW, Invitrogen) was mixed with probenecid Hank's balanced salt solution (invitrogen), followed by addition of 20 mM hydroxyethyl piperazine […] (invitrogen) (pH 7.4). The resulting mixture was eventually added to the microwells containing cells. The cells were incubated at 37° C. for 60 min, and then balanced at 22° C. for 15 min. The microplate was placed in a microplate reader (CellLux, PerkinElmer), and the solution of test compound with different concentrations or Hank's balanced salt solution was added. The microplate containing the solution was incubated for 5 min, followed by the addition of 10 nM of orexin B or a balanced salt solution (as control). The changes of fluorescence intensity proportional to the concentration of calcium ions in the cytoplasm were measured.
With the substrate control as 0 and 10 nM of orexin B as 100%, inhibition rate of each compound was recorded. Referring to the compound JNJ10397049, several different concentrations were measured in each experiment. Dose-response curves were made, and IC50 value of each compound was calculated.

[2] = biological target: humanized OX1 receptor (Homo sapiens (Human), UniProt O43613); assay: Antagonism of humanized OX1 receptor assay (fluorescence detection of free cytoplasmic calcium, 3 nM orexin A); type: cell-based; conditions: humanized OX1 receptor transfected CHO cells
humanized OX1 receptor, sequence (O43613 whole entry): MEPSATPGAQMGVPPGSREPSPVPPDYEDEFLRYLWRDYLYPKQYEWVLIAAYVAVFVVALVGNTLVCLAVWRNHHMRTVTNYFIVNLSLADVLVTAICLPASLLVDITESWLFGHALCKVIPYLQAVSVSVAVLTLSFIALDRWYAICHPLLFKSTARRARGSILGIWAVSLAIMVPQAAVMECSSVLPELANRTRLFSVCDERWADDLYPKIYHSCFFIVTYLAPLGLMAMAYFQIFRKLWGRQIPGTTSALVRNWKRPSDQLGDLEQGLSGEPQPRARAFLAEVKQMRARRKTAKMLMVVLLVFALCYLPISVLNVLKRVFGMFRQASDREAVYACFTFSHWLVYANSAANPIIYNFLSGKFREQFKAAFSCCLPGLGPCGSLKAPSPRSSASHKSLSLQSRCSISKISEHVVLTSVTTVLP
Protocol: The capability of the compounds to the antagonism of humanized OX1 receptor transfected to the Chinese hamster ovary (CHO) cells was evaluated by the method of fluorescence detected free calcium concentration in the cytoplasm. The cells were suspended in a cell culture medium (invitrogen), and then plated to a microplate with an average density of 2×10^4 cells/well. The fluorescent probes (Fluo4 NW, Invitrogen) was mixed with probenecid Hank's balanced salt solution (invitrogen), followed by addition of 20 mM hydroxyethyl piperazine […] (invitrogen) (pH 7.4). The resulting mixture was eventually added to the microwells containing cells. The cells were incubated at 37° C. for 60 min, and then balanced at 22° C. for 15 min. The microplate was placed in a microplate reader (CellLux, PerkinElmer), and the solution of test compound with different concentrations or Hank's balanced salt solution was added. The microplate containing the solution was incubated for 5 min, followed by the addition of 3 nM of orexin A or a balanced salt solution (as control). The changes of fluorescence intensity proportional to the concentration of calcium ions in the cytoplasm were measured.
With the substrate control as 0 and 3 nM orexin A as 100%, inhibition rate of each compound was recorded. Referring to the compound SB334867, several different concentrations were measured in each experiment. Dose-response curves were made, and IC50 value of each compound was calculated.

[3] = Pharmacokinetic evaluation with intravenous or oral administration; type: in vivo; conditions: rats; for AUC(0-inf) / AUC(0-t) / Cmax / Tmax / clearance / Vd: rat, plasma; for Vd: read-out: Vss
Protocol: Pharmacokinetics of the compound of the present invention in rats, dogs or monkeys was evaluated in the present invention. The compounds of this invention were administered with a saline solution of 5% DMSO+5% Kolliphor HS 15+2% (2% HCl)+88% Saline or 10% DMSO+10% Kolliphor HS 15+80% physiological. For intravenous administration, the animals were given a dose of 1 mg/kg, drew blood (0.3 mL) at the time point of 0.083, 0.25, 0.5, 1.0, 2.0, 4.0, 6.0, 8.0 and 24 h, and centrifuged in 3,000 or 4,000 rpm for 10 min. For oral (p.o.) administration, the animals were given a dose of 2.5 mg/kg or 5 mg/kg, drew blood (0.3 mL) at the time point of 0.25, 0.5, 1.0, 2.0, 4.0, 6.0, 8.0 and 24 h, and centrifuged in 3,000 or 4,000 rpm for 10 min. Plasma solution was collected and was stored at −20° C. or […] until LC/MS/MS analysis.

[4] = intravenous administration, 1 mg/kg

humanized OX2 receptor, sequence (O43614 whole entry): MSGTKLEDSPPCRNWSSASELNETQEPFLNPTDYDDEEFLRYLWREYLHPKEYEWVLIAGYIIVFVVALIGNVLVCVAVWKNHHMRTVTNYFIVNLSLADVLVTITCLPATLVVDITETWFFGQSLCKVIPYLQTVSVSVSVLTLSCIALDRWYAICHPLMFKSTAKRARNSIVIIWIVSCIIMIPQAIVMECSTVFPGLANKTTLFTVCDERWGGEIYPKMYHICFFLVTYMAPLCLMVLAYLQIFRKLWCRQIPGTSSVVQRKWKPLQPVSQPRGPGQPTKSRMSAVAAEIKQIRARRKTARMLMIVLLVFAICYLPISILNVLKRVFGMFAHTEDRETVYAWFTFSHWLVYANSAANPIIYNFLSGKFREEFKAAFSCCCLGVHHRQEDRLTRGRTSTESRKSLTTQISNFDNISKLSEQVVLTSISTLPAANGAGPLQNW

| Structure (SMILES) | IC50 [1] [nM] | IC50 [2] [nM] | AUC(0-inf) [3, 4] [ng·h/mL] | AUC(0-t) [3, 4] [ng·h/mL] | Cmax [3, 4] [ng/mL] | Tmax [3, 4] [min] | clearance [3, 4] [mL/min/kg] | Vd [3, 4] [L/kg] | AUC(0-inf) ([3]; oral administration, 2.5 mg/kg) [ng·h/mL] | AUC(0-t) ([3]; oral administration, 2.5 mg/kg) [ng·h/mL] | Cmax ([3]; oral administration, 2.5 mg/kg) [ng/mL] | Tmax ([3]; oral administration, 2.5 mg/kg) [min] | F ([3]; oral administration, 2.5 mg/kg) [%] | AUC(0-inf) ([3]; oral administration, 5 mg/kg) [ng·h/mL] | AUC(0-t) ([3]; oral administration, 5 mg/kg) [ng·h/mL] | Cmax ([3]; oral administration, 5 mg/kg) [ng/mL] | Tmax ([3]; oral administration, 5 mg/kg) [min] | F ([3]; oral administration, 5 mg/kg) [%] |
| --- | --- | --- | --- | --- | --- | --- | --- | --- | --- | --- | --- | --- | --- | --- | --- | --- | --- | --- |
| Cc1ccc(-n2nccn2)c(C(=O)N2CCCN(c3nc4ccc(F)cc4c(=O)[nH]3)CC2)c1 [Example 1, 6-fluoro-2-(4-(5-methyl-2-(2H-1,2,3-triazol-2-yl)benzoyl)-1,4-diazepan-1-yl)quinazolin-4(3H)-one] | 300 | 322 |  |  |  |  |  |  |  |  |  |  |  |  |  |  |  |  |
| Cc1ccc(-n2nccn2)c(C(=O)N2CCCN(c3nc4ccc(Cl)cc4c(=O)[nH]3)CC2)c1 [Example 5, 6-chloro-2-(4-(5-methyl-2-(2H-1,2,3-triazol-2-yl)benzoyl)-1,4-diazepan-1-yl)quinazolin-4(3H)-one] | 263 | 276 |  |  |  |  |  |  |  |  |  |  |  |  |  |  |  |  |
| Cc1ccc(-n2nccn2)c(C(=O)N2CCN(c3nc4ccc(Cl)cc4c(=O)[nH]3)CCC2C)c1 (centres unmarked) [Example 6, 6-chloro-2-(5-methyl-4-(5-methyl-2-(2H-1,2,3-triazol-2-yl)benzoyl)-1,4-diazepan-1-yl)quinazolin-4(3H)-one] | 221 | 367 | 1740 | 1730 | 3660 | 4.98 | 9.66 | 0.292 |  |  |  |  |  | 6840 | 6800 | 5680 | 20 | 79 |

The remaining lines, values ahead:

| IC50 [1] [nM] | IC50 [2] [nM] | AUC(0-inf) [3, 4] [ng·h/mL] | AUC(0-t) [3, 4] [ng·h/mL] | Cmax [3, 4] [ng/mL] | Tmax [3, 4] [min] | clearance [3, 4] [mL/min/kg] | Vd [3, 4] [L/kg] | AUC(0-inf) ([3]; oral administration, 2.5 mg/kg) [ng·h/mL] | AUC(0-t) ([3]; oral administration, 2.5 mg/kg) [ng·h/mL] | Cmax ([3]; oral administration, 2.5 mg/kg) [ng/mL] | Tmax ([3]; oral administration, 2.5 mg/kg) [min] | F ([3]; oral administration, 2.5 mg/kg) [%] | AUC(0-inf) ([3]; oral administration, 5 mg/kg) [ng·h/mL] | AUC(0-t) ([3]; oral administration, 5 mg/kg) [ng·h/mL] | Cmax ([3]; oral administration, 5 mg/kg) [ng/mL] | Tmax ([3]; oral administration, 5 mg/kg) [min] | F ([3]; oral administration, 5 mg/kg) [%] | Structure (SMILES) |
| --- | --- | --- | --- | --- | --- | --- | --- | --- | --- | --- | --- | --- | --- | --- | --- | --- | --- | --- |
| 169 | 543 | 866 | 865 | 1400 | 4.98 | 19.2 | 0.66 | 1780 | 1770 | 1940 | 20 | 81.8 |  |  |  |  |  | Cc1ccc(-n2nccn2)c(C(=O)N2CCN(c3nc4ccc(F)cc4c(=O)[nH]3)CCC2C)c1 (centres unmarked) [Example 2, 6-fluoro-2-(5-methyl-4-(5-methyl-2-(2H-1,2,3-triazol-2-yl)benzoyl)-1,4-diazepan-1-yl)quinazolin-4(3H)-one] |
|  |  | 3700 | 3450 | 4080 | 4.98 | 4.52 | 1.33 |  |  |  |  |  | 15000 | 14300 | 13800 | 15 | 83.1 | O=C(c1ccccc1-n1nccn1)N1CCCN(c2nc3ccc(Cl)cc3c(=O)[nH]2)CC1 [Example 7, 2-(4-(2-(2H-1,2,3-triazol-2-yl)benzoyl)-1,4-diazepan-1-yl)-6-chloroquinazolin-4(3H)-one] |

From US10196383B2, “Substituted quinazoline compounds and preparation and uses thereof” (Sunshine Lake Pharma Co., Ltd., priority 2015, dated 2019)
